We go through seven molecules from patent publication US20160222024A1, “S-ENANTIOMER OF TETRACYCLIC INDOLE DERIVATIVE AS PBR LIGANDS” (priority 2013, published 2016).

Where two headings read alike, the source gives them in different places.

What is called Ki is a dissociation constant, usually derived from enzyme kinetics or from competition with a known ligand.

Assay [1] concerns TSPO. The note with it: in vitro assay; LABs compared with HABs; cited from earlier work.
For assay [2], the system named is TSPO. The note with it: ratio of low affinity site to high affinity site; resolved enantiomers.
Procedure: (§1) Membrane protein was prepared from human platelets obtained from 4 donor whole blood samples. Two of these donor samples were previously identified as having high affinity and 2 identified as having low affinity based on PBR28 binding affinity. Platelet pellets were homogenized in 10 ml buffer 1 (0.32 mM sucrose, 5 mM Tris base, 1 mM MgCl2, pH 7.4, 4° C.). The homogenates were centrifuged at 48,000×g for 15 minutes at 4° C. in a Beckman J2-MC centrifuge. The supernatant was removed and pellets were re-suspended in at least 10 ml buffer 2 (50 mM Tris base, 1 mM MgCl2, pH 7.4, 4° C.) and washed by centrifugation at 48,000×g for 15 mM at 4° C. in buffer 2. Membranes were suspended in 2 ml buffer 2 and the protein concentration was determined using Protein Assay Kit II (Bio Rad cat #500-0002). Aliquots were stored at −80° C. until use.
(§2) Aliquots of membrane suspension were thawed and homogenized with assay buffer 3 (50 mM Tris base, 140 mM NaCl, 1.5 mM MgCl2, 5 mM KCl, 1.5 mM CaCl2, pH 7.4, 37° C.). […] Compound 1 was diluted on a Beckman Biomek 2000 workstation at 11 serial dilutions ranging from 1 μM to 0.01 nM. GE180 was diluted at 11 serial dilutions ranging from 100 μM to 1 nM. Total and nonspecific binding assessments were also performed. 160 μL of platelet membranes diluted to 30 μg/mL were added to the assay plate for a final volume of 200 μL/well. Assay plates were incubated at 37° C. for at least one hour with termination of incubation by filtering onto GF/B glass fiber plates (Perkin Elmer; cat #6005177) pre-soaked in 0.1% PEI in saline for 60 minutes. Assay plates were rinsed five to six times with ice cold buffer 4 (50 mM Tris Base, 1.4 mM MgCl2, pH 7.4, 4° C.) on a Perkin Elmer Filtermate 196. Plates were then dried, the bottoms sealed, and 50 μL of MicroScint 20 (Perkin Elmer cat #6013621) was added to each well. After sealing the tops, the plates were allowed to equilibrate for at least 30 minutes and the captured radioactivity was counted on a Perkin Elmer TopCount NTX.
Assay [3] has as its target T1, TSPO (Homo sapiens, UniProt P30536). Put plainly: biochemical.
Procedure: as §1, §2
Assay [4] has as its target T2, TSPO (Homo sapiens, UniProt P30536, T147A). Briefly: biochemical.
Procedure: as §1, §2
Assay [5] relates to TSPO. The following applies: compared with [11C]PBR28; cited from earlier work.
Assay [6] addresses T1, TSPO. Put plainly: biochemical. The source holds these as a separate data set.
Procedure: (§3) Membrane protein was prepared from human platelets obtained from 4 donor whole blood samples. […] Platelet pellets were homogenized in 10 ml buffer 1 (0.32 mM sucrose, 5 mM Tris base, 1 mM MgCl2, pH 7.4, 4° C.). The homogenates were centrifuged at 48,000×g for 15 minutes at 4° C. in a Beckman J2-MC centrifuge. The supernatant was removed and pellets were re-suspended in at least 10 ml buffer 2 (50 mM Tris base, 1 mM MgCl2, pH 7.4, 4° C.) and washed by centrifugation at 48,000×g for 15 mM at 4° C. in buffer 2. Membranes were suspended in 2 ml buffer 2 and the protein concentration was determined using Protein Assay Kit II (Bio Rad cat #500-0002). Aliquots were stored at −80° C. until use.
(§4) Aliquots of membrane suspension were thawed and homogenized with assay buffer 3 (50 mM Tris base, 140 mM NaCl, 1.5 mM MgCl2, 5 mM KCl, 1.5 mM CaCl2, pH 7.4, 37° C.). […] GE180 was diluted at 11 serial dilutions ranging from 100 μM to 1 nM. Total and nonspecific binding assessments were also performed. 160 μL of platelet membranes diluted to 30 μg/mL were added to the assay plate for a final volume of 200 μL/well. Assay plates were incubated at 37° C. for at least one hour with termination of incubation by filtering onto GF/B glass fiber plates (Perkin Elmer; cat #6005177) pre-soaked in 0.1% PEI in saline for 60 minutes. Assay plates were rinsed five to six times with ice cold buffer 4 (50 mM Tris Base, 1.4 mM MgCl2, pH 7.4, 4° C.) on a Perkin Elmer Filtermate 196. Plates were then dried, the bottoms sealed, and 50 μL of MicroScint 20 (Perkin Elmer cat #6013621) was added to each well. After sealing the tops, the plates were allowed to equilibrate for at least 30 minutes and the captured radioactivity was counted on a Perkin Elmer TopCount NTX.
The target in assay [7] is T2, TSPO. Put plainly: biochemical. This is another data set of the same source.
Procedure: as §3, §4
In assay [8] the test system is TSPO. The following applies: ratio of low affinity site to high affinity site; racemates.
Procedure: as §3, §4

T2 sequence (P30536 2-169 T147A): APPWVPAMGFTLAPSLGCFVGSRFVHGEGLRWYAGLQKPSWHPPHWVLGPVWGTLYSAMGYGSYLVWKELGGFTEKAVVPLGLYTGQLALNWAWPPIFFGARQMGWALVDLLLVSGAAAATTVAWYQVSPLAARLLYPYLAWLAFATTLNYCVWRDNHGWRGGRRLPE
T1 sequence (P30536 2-169): as the sequence (P30536 2-169 T147A) above, with A146T counted along it

For `COc1ccccc1CN(C(C)=O)c1cnccc1Oc1ccccc1` [[^3H]PBR28], in the assay with TSPO [1], the “lower TSPO affinity in LABs than in HABs” value is given as “more than 10 fold”.
Turning to `COc1ccccc1CN(C(C)=O)c1cnccc1Oc1ccccc1` [PBR28, N-(2-methoxybenzyl)-N-(4-phenoxypyridin-3-yl)acetamide], the “Low:High affinity ratio” value with TSPO [2] is on record as 28. For the same molecule, the Ki at TSPO [3] is 117 nM; at TSPO [4], 4 nM.
Consider `CCC(C)N(C)C(=O)c1cc2ccccc2c(-c2ccccc2Cl)n1` (stereo not shown) [[^11C]PK11195], for which, in the assay with TSPO [5], the “in vivo specific binding in monkey brain, lower than that reported for [11C]PBR28” value is on record as around 80 fold.
Turning to `CCN(CC)C(=O)[C@H]1Sc2ccccc2-c2c1c1ccc(OC)cc1n2CC[18F]` [Compound 1 E2], the “Low:High affinity ratio” value in the assay with TSPO [2] is recorded as 1. For the same molecule, the inhibition constant (Ki) is 4 nM on TSPO [3] and 3 nM on TSPO [4].
Turning to `CCN(CC)C(=O)C1Sc2ccccc2-c2c1c1c(OC)cccc1n2CCF` (racemic) [Compound 1, N,N-diethyl-11-(2-fluoroethyl)-7-methoxy-6,11-dihydrothiochromeno[4,3-b]indole-6-carboxamide], the figures for the inhibition constant Ki on TSPO [6] and at TSPO [7] were 0.51 nM and 0.05 nM, respectively. In addition, the “Low:High affinity ratio” value with TSPO [8] stood at 9.87.
With `CCN(CC)C(=O)[C@H]1CCCc2c1c1c(OC)cccc1n2CCF` (stereo in doubt) [GE180, 9-(2-Fluoro-ethyl)-5-methoxy-2,3,4,9-tetrahydro-1H-carbazole-4-carboxylic acid diethylamide], the “Low:High affinity ratio” value in the assay on TSPO [2] came to 3; in the assay on TSPO [8], 15.44.
As to `CCN(CC)C(=O)[C@@H]1Sc2ccccc2-c2c1c1ccc(OC)cc1n2CCF` [Compound 1 E1], the “Low:High affinity ratio” value in the assay with TSPO [2] was 2. For the same molecule, the inhibitory constant (Ki) at TSPO [3] was 31 nM; on TSPO [4] it was 15 nM.
